Reference: US20260317319A1, “NOVEL ERGOLINES AND METHODS OF TREATING MOOD DISORDERS” (Gilgamesh Pharma Inc., priority 2023, published 2026)
pEC50, pKi: −log10 of the molar value. Read-outs that look alike come from different tables or passages of the source.

Assays:
5-HT2A receptor [1] = biological target: T1, 5-HT2A receptor (Homo sapiens, UniProt P28223); assay: cell-based; type: cell-based; design: expressed in transfected cells; host or cells: HEK293, stably transfected; conditions: HEK293, agonist, Ca2+ flux, HEK293, max dose; read-out: 5-HT2A % Act @ Max Dose
T1 sequence (P28223 whole entry): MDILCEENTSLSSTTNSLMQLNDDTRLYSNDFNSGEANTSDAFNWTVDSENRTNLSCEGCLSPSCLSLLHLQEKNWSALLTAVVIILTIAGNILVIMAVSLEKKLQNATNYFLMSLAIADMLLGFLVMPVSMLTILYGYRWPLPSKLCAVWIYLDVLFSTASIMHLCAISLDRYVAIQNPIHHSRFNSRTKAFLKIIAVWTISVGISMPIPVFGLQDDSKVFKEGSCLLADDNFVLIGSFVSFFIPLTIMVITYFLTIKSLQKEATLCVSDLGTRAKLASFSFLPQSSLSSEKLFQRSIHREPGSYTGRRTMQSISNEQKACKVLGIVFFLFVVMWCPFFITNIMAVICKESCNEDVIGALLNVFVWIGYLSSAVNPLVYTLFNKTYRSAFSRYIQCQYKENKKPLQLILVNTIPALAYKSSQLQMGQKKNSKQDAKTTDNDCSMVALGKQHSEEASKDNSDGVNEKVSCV
Summary of the method: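 Cells plated and incubated overnight at 37 °C, 5% CO2; Fluo-4 Direct dye with probenecid (final 2.5 mM) added, 50 min at 37 °C; test compounds transferred and Ca2+ signal recorded. HEK293 hosts for 5-HT2A/2B, CHO + Gα15 for 5-HT1A.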

5-HT2B receptor [2] = biological target: T2, 5-HT2B receptor (Homo sapiens, UniProt P41595); assay: cell-based; type: cell-based; conditions: Ca2+ flux, HEK293, max dose; for Emax: HEK293, agonist, read-out: 5-HT2B % Act @ Max Dose
T2 construct: expressed in transfected cells; host or cells: HEK293, stably transfected
T2 sequence (P41595 whole entry): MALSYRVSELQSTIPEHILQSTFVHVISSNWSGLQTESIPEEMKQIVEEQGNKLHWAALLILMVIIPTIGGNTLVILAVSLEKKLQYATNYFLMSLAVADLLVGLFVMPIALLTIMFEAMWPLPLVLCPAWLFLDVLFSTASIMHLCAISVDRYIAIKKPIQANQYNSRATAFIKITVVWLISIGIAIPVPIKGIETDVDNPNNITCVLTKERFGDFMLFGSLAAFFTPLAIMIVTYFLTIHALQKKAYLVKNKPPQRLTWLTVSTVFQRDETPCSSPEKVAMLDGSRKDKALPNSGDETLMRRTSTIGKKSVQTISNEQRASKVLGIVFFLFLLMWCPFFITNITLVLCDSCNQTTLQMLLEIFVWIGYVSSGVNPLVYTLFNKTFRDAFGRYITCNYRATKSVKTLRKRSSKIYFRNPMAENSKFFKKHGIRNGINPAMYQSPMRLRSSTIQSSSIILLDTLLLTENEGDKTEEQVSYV
Summary of the method: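 FLIPR Tetra fluorescence read-out of calcium flux after compound addition. Receptor-expressing stable lines were used (HEK293 for 2A/2B; CHO with Gα15 for 1A), dye-loaded with Fluo-4 Direct and 2.5 mM final probenecid, 50 min at 37 °C.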

5-HT1A receptor = biological target: T3, 5-HT1A receptor (Homo sapiens, UniProt P08908); assay: cell-based; conditions: agonist, Ca2+ flux; for Emax: CHO, read-out: 5-HT1A % Act @ Max Dose
T3 construct: expressed in transfected cells; host or cells: CHO cells, stably transfected
T3 sequence (P08908 1-422): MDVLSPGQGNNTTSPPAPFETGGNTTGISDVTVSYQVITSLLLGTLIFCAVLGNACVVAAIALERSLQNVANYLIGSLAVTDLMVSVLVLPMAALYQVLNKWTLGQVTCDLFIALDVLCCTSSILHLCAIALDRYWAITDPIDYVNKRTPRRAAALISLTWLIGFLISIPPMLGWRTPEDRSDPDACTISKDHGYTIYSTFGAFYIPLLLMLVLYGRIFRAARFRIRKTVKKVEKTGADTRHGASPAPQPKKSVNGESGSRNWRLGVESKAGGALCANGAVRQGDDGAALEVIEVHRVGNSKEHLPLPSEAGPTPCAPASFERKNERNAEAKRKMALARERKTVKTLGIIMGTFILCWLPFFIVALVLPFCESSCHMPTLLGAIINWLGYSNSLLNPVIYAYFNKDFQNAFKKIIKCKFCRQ
Summary of the method: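 Receptor agonism was assessed as intracellular calcium mobilization in stably transfected cells, with CHO cells additionally carrying Gα15 for the 5-HT1A readout. Calcium was monitored with Fluo-4 Direct dye.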

5-HT2A receptor [3] = biological target: T1, 5-HT2A receptor; assay: cell-based; type: cell-based; conditions: for Emax: read-out: 5-HT2A Arrestin % Act @ Max Dose
Summary of the method: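 PathHunter β-arrestin recruitment (enzyme fragment complementation): 5-HT2A fused to ProLink donor in cells co-expressing β-arrestin–β-galactosidase acceptor, seeded and held at 37° C before testing. Chemiluminescent read-out; agonist % activity = (sample RLU − vehicle)/(max control ligand − vehicle) × 100.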

5-HT2B receptor [4] = biological target: T2, 5-HT2B receptor; assay: 5-HT2B receptor radioligand binding ([3H]LSD)
5-HT1B receptor = biological target: T4, 5-HT1B receptor (Homo sapiens, UniProt P28222); assay: cAMP accumulation functional assay at 5-HT1B; type: cell-based; conditions: agonist, cAMP accumulation, max dose; read-out: 5-HT1B % Act @ Max Dose
T4 construct: expressed in transfected cells
T4 sequence (P28222 whole entry): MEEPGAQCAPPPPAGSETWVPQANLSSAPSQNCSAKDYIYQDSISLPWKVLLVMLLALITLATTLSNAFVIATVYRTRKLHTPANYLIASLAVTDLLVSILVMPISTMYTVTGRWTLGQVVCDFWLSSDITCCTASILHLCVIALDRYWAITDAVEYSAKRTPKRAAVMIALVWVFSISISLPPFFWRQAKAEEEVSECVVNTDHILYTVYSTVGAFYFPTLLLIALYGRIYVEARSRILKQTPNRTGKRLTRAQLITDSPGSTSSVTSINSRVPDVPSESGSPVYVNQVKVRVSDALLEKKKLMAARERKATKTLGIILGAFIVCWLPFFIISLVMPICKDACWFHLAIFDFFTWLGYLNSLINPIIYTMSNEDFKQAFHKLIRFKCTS
Summary of the method: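 Agonist activity measured as cAMP accumulation in cells stably transfected with human 5-HT1B. Cells incubated 60 min at RT, then detection reagent added for a further 60 min at RT before plate reading.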

C57BL/6 mice = assay: Automated mouse head twitch response (HTR) assay (video tracking); type: in vivo; conditions: sc; for # HTR/20 min at Most Efficacious Dose: 20 min recording, at each compound's most efficacious dose (35*, 43*, 44*: suppressed below vehicle 14.5, dose is that of least suppression); for # HTR/20 min at Most Efficacious Dose / Peak HTR/min at Most Efficacious Dose: mean; for Most Efficacious Dose for Peak HTR/min: dose giving highest peak HTR/min (35*, 43*, 44*: dose that resulted in the least suppression); for Most Efficacious Dose for # HTR/20 min: dose giving most HTR/20 min (35*, 43*, 44*: dose that resulted in the least suppression); for Peak HTR/min at Most Efficacious Dose: rate over 2-min bins, at each compound's most efficacious dose (35*, 43*, 44*: suppressed below vehicle 1.62, dose is that of least suppression)
Description: Disclosed compounds were tested for their ability to induce a head twitch response (HTR) in mice using an automated video tracking procedure, with the results summarized in Table 8 and FIG. 4.
Animals. Adult male C57BL/6 mice aged 8-10 weeks (Jackson Labs, Bar Harbor, ME; body weight 18-25 g) were used in this experiment. Animals were group housed under environmentally controlled temperatures and 12-hour light/dark cycles (lights on between 06:00-18:00 h), with ad libitum food and water. Mice were habituated to the facility for at least 5 days prior to testing. All animal procedures were approved by the local IACUC and conducted in accordance with the NIH Guide for the Care and Use of Laboratory Animals.
Procedure. Mice were administered one dose of the drug and immediately placed into a small open field for behavioral observation. High-speed video of animals' behavior was captured continuously for 20 min. Video recordings were imported into an image processing software, which detects multiple points of interest on each animal's body, including the left and right ear. HTR events were defined as periodic deviations of ear locations from temporally averaged ear locations. Predefined thresholds for magnitude and frequency of location deviations were used to filter HTR events from random head movements. The method was validated by comparing detected events with manual (human) observations and found to have an accuracy >95%. The total number of HTR events counted during the 20-min recording and the rate in HTR/min calculated over 2-min bins were determined for each animal at each dose.
Statistical Analysis. The data points shown are the mean±standard error of the mean (SEM).

5-HT2C receptor = biological target: T5, 5-HT2C receptor (Homo sapiens, UniProt P28335); assay: cell-based; conditions: for Emax: read-out: 5-HT2C % Act @ Max Dose
T5 sequence (P28335 33-458): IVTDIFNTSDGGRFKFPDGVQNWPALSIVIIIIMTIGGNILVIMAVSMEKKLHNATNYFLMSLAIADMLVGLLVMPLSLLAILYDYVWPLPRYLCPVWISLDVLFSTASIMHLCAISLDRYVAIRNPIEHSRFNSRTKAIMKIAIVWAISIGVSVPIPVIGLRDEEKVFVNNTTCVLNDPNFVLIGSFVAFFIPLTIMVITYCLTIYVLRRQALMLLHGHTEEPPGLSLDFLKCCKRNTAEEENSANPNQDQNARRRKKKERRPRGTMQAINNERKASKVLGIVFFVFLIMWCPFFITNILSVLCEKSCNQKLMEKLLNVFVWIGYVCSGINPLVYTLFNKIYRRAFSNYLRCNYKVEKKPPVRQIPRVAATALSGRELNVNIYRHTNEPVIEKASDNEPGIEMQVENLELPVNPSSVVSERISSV

in vitro = in vitro ADME, human; conditions: HLM 0.50 mg/mL, NADPH 1 mM, 1 μM compound, pH 7.4, 37° C., 60 min
[5] = agonist, beta-arrestin recruitment, PathHunter, read-out: 5-HT2A Arrestin EC50
[6] = agonist, beta-arrestin recruitment, max dose
[7] = agonist, Ca2+ flux, Eurofins DiscoverX protocol, max dose
[8] = agonist, Ca2+ flux, Eurofins DiscoverX protocol, read-out: 5-HT2C EC50

SMILES | Emax (5-HT2A receptor [1]) | Emax (5-HT2B receptor [2]) | Emax (5-HT1A receptor; CHO cells with Gα15, max dose) | pEC50 (5-HT2A receptor [3]; [5]) | Emax (5-HT2A receptor [3]; [6]) | pKi (5-HT2B receptor [4]; read-out: 5-HT2B Receptor Ki) | Emax (5-HT1B receptor) | # HTR/20 min at Most Efficacious Dose (C57BL/6 mice) | Most Efficacious Dose for Peak HTR/min (C57BL/6 mice) | Most Efficacious Dose for # HTR/20 min (C57BL/6 mice) | Peak HTR/min at Most Efficacious Dose (C57BL/6 mice) | Emax (5-HT2C receptor; [7]) | pEC50 (5-HT2C receptor; [8]) | also measured
CCC(CC)NC(=O)[C@@H]1C=C2c3cccc4[nH]c(Br)c(c34)C[C@H]2N(C)C1 [Compound 44, (6aR,9R)-5-bromo-N-(pentan-3-yl)-7-methyl-4,6,6a,7,8,9-hexahydroindolo[4,3-fg]quinoline-9-carboxamide] | 29.9% | 15.7% | 16.6% | 8.77 | 40.7% | 8.03 | 68.5% | 4.38 HTR/20 min | (3.2) mg/kg, sc | (1) mg/kg, sc | 0.93 HTR/min | 40% | 5.31 | –
CC[C@@H](C)NC(=O)[C@@H]1C=C2c3cccc4[nH]c(Br)c(c34)C[C@H]2N(C)C1 [Compound 43, (6aR,9R)-5-bromo-N—((R)-sec-butyl)-7-methyl-4,6,6a,7,8,9-hexahydroindolo[4,3-fg]quinoline-9-carboxamide] | 39.3% | 1% | 6.3% | 8.65 | 51.8% | 8.02 | 83.8% | 6.5 HTR/20 min | – | (0.1) mg/kg, sc | 1 HTR/min | 3.13% | < 5.00 | –
CCN(CC)C(=O)[C@@H]1C=C2c3cccc4[nH]c(Br)c(c34)C[C@H]2N(C)C1 [Compound 35, (6aR,9R)-5-bromo-N,N-diethyl-7-methyl-4,6,6a,7,8,9-hexahydroindolo[4,3-fg]quinoline-9-carboxamide] | – | – | – | – | – | – | – | 2.38 HTR/20 min | (0.1) mg/kg, sc | (0.1) mg/kg, sc | 0.56 HTR/min | – | – | 5-HT2B % Act @ Max Dose (5-HT2B receptor [2]; agonist): -0.13%; pEC50 (5-HT1A receptor; CHO cells with Gα15): < 4.00; 5-HT1A % Act @ Max Dose (5-HT1A receptor; CHO cells with Gα15, max dose): 11.94%; pEC50 (5-HT2A receptor [3]): 8.78; 5-HT2A Arrestin % Act @ Max Dose (5-HT2A receptor [3]; [6]): 30.94%; pKi (5-HT2B receptor [4]): 8.30; Intrinsic clearance (Clint) (in vitro): 57.4 µL/min/mg; half-life (t1/2) (in vitro): 24.2 min; pEC50 (5-HT2C receptor): < 5.00; 5-HT2C % Act @ Max Dose (5-HT2C receptor; [7]): 0%
